Assay [1] in a line: viability of HCT116 lacking mutant beta-catenin – cell-based, human colon tumor, dose response (AID 1045).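 Further: HCT116 colon tumor cells with beta catenin knocked out; cells exposed to compound for 60 hours.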 Type of assay: functional.
In assay [2] the target is T1, Heat shock factor protein 1 (Mus musculus, UniProt P38532).
T1 sequence (P38532 whole entry): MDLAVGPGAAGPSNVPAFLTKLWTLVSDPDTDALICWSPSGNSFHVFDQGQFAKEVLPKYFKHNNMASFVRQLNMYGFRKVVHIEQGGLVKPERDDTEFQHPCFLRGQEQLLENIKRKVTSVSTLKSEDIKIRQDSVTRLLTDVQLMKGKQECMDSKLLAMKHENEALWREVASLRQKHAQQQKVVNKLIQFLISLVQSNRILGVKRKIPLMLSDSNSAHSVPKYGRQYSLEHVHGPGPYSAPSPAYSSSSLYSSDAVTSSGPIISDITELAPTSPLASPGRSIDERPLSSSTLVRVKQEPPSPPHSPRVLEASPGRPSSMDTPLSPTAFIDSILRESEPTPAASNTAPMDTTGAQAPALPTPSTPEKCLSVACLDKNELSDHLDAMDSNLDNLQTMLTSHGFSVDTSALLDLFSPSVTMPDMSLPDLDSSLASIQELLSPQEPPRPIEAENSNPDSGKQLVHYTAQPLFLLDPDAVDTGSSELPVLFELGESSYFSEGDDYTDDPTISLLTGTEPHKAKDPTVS
Put plainly: enhancement of HSF1-driven luciferase signal – cell-based, NIH3T3, luminescence, dose retest, confirmation (AID 435004).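 Further: stress induced by proteasome inhibitor MG132 added 30 min after compound; luciferase reporter driven by HSF1 response element in NIH3T3 cells; actives raise luminescence as potentiators of the MG132 stress response.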 In kind it is functional.

In assay [3] the target is T2, Histone-lysine N-methyltransferase NSD2 (Homo sapiens, UniProt O96028).
T2 sequence (O96028 whole entry): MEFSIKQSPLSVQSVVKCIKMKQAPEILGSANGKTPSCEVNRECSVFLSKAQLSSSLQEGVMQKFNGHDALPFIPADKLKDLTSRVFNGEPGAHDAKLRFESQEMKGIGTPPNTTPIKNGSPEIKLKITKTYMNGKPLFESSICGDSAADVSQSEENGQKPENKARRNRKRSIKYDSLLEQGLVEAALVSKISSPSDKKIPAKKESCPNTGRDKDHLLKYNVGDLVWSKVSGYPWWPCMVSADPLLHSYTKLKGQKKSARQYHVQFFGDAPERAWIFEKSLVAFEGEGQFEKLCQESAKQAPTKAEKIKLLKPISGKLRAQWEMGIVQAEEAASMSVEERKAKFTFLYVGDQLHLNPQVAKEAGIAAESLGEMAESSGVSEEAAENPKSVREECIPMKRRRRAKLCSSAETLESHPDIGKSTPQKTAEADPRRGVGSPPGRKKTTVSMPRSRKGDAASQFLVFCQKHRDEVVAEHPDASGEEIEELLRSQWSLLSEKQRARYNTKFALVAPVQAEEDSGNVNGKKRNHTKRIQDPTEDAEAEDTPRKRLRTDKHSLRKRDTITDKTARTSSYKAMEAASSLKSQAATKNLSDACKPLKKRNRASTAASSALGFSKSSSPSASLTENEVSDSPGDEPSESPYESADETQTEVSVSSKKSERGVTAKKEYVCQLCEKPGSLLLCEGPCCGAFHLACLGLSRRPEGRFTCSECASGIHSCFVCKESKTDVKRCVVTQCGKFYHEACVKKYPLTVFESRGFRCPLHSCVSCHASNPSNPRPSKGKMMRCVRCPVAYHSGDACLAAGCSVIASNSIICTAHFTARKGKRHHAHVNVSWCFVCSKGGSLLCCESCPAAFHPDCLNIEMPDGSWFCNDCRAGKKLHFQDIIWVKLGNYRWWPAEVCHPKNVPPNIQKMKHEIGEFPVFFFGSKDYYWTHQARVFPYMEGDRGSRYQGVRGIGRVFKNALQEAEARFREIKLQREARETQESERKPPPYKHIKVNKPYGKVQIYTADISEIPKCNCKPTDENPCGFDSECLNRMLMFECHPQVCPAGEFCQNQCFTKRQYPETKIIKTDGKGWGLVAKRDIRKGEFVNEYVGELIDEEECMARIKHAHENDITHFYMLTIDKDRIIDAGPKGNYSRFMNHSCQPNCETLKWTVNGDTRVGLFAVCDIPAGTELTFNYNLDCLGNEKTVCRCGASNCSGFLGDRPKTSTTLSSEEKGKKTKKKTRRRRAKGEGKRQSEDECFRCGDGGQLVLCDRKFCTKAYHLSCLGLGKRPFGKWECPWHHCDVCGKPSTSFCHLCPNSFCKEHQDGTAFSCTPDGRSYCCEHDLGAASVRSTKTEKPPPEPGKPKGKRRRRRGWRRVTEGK
In kind it is biochemical.

Activity calls are given as the source filed them.

In general, EC50 refers to the concentration that produces a half-maximal response. On to `CCC(=O)OCCNc1cc(Sc2nccn2C)c2nonc2c1[N+](=O)[O-]`, for which the figures for the concentration giving a half-maximal response (EC50) in assay [1] and in assay [2] were 3.98 µM (active) and 4.5 µM (active), respectively.

Consider `CCc1ccc(OCC(=O)N/N=C2\CC(=O)c3ccccc32)cc1`, for which the half-maximal effective concentration (EC50) in assay [1] is 11.6 µM (active). Turning to `CCOC(=O)C1=C(c2ccc(OC)cc2)C(=O)c2ccccc2C1=O`, the EC50 in assay [1] was 2.33 µM (active); in assay [2], 52.2 µM (active).

A word on the AC50: it is the concentration giving half of the maximal activity seen. `COCCCNC(=O)c1ccc2c3c(onc13)-c1ccccc1C2=O`: the AC50 in assay [3] is > 20 µM (inactive). The EC50 in assay [2] was 3.48 µM (active). As for `O=C1C=C(N(CCO)Cc2ccccc2)c2ccccc2C1=O`, in assay [3], the half-maximal activity concentration (AC50) is 1.2 µM (active). `CCCCn1c(NC(=O)c2ccccc2Cl)c(C#N)c2nc3ccccc3nc21`: in assay [3], the AC50 was 2.68 µM (active).

Values taken from ChEMBL document CHEMBL1201862, “PubChem BioAssay data set” (2004).
